The target of one assay is T1, Nuclear factor erythroid 2-related factor 2 (Homo sapiens) (UniProt Q16236).
T1 sequence (whole entry): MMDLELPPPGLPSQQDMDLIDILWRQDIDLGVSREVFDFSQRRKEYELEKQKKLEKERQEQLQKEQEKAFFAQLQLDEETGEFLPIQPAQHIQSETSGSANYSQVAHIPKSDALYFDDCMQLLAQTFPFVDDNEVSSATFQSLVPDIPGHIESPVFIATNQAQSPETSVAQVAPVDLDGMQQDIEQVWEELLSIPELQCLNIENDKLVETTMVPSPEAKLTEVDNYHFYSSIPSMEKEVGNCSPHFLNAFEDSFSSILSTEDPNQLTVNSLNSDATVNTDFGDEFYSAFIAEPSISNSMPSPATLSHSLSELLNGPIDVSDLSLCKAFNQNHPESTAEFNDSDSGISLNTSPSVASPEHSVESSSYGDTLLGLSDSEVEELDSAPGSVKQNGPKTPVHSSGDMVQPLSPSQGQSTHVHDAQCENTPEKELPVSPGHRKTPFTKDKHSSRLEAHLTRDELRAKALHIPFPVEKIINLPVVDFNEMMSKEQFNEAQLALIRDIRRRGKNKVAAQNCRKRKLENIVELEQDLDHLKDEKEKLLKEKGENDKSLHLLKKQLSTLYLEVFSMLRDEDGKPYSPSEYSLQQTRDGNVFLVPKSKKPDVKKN
The assay can be described thus: Induction of Nrf2-mediated ARE activity in human HepG2-ARE-C8 cells at 0.01 uM after 12 hrs by luciferase reporter gene assay relative to control. It is filed as cell-based. On the technique in general: Reporter assays use an easily measured gene product as a stand-in for the process of interest.
For the compound `O=C(/C=C1\NCC2c3ccccc3CCN2C1=O)c1ccccc1Cl` (stereo not given), the fold change (FC) turned out to be 1.19.
Take `COc1cccc(C(=O)/C=C2\NCC3c4cc(OC)c(OC)cc4CCN3C2=O)c1` (stereo not given): the fold change (FC) was 1.45.
The same measure, in the same setting: for `COc1cccc2c1CCN1C(=O)/C(=C/C(=O)c3cccc(F)c3)NCC21` (stereo not given) the value was 0.79; for `COc1ccc2c(c1)C1CN/C(=C\C(=O)c3ccccc3)C(=O)N1CC2` (stereo not given), 1.35.
`O=C(/C=C1\NCC2c3ccccc3CCN2C1=O)c1ccccc1[N+](=O)[O-]` (stereo not given): the fold change (FC) amounted to 1.28.
On to `COc1ccc(C(=O)/C=C2\NCC3c4ccccc4CCN3C2=O)cc1OC` (stereo not given), for which the fold change (FC) stood at 1.52.
Same read-out and setting: under `COc1ccc2c(c1)C1CN/C(=C\C(=O)c3cccc([N+](=O)[O-])c3)C(=O)N1CC2` (stereo not given) stands 1.45; under `O=C(/C=C1\NCC2c3ccccc3CCN2C1=O)c1cccc(Cl)c1` (stereo not given), 1.94; under `COc1ccc2c(c1)C1CN/C(=C\C(=O)c3ccc(F)cc3)C(=O)N1CC2` (stereo not given), 1.29.
Still for that read-out and setting: under `COc1cc2c(cc1OC)C1CN/C(=C\C(=O)c3ccccc3F)C(=O)N1CC2` (stereo not given) stands 1.07; under `COc1cc2c(cc1OC)C1CN/C(=C\C(=O)c3cccc([N+](=O)[O-])c3)C(=O)N1CC2` (stereo not given), 1.31; under `COc1ccc2c(c1)CCN1C(=O)/C(=C/C(=O)c3ccccc3F)NCC21` (stereo not given), 2.58.
Take `COc1cccc(C(=O)/C=C2\NCC3c4ccccc4CCN3C2=O)c1` (stereo not given): the fold change (FC) amounted to 1.48.
Still for that read-out and setting: for `COc1cc2c(cc1OC)C1CN/C(=C\C(=O)c3cccc(F)c3)C(=O)N1CC2` (stereo not given) the value was 2.31.

The target in the next assay is T1, Nuclear factor erythroid 2-related factor 2 (Homo sapiens). Nature of the assay: Induction of Nrf2-mediated ARE activity in human HepG2-ARE-C8 cells at 0.1 uM after 12 hrs by luciferase reporter gene assay relative to control. Type of assay: cell-based.
For the compound `O=C(/C=C1\NCC2c3ccccc3CCN2C1=O)c1ccccc1Cl` (stereo not given), the fold change (FC) came to 2.19.
With `COc1cccc(C(=O)/C=C2\NCC3c4cc(OC)c(OC)cc4CCN3C2=O)c1` (stereo not given), the fold change (FC) was 1.18.
For `COc1cccc2c1CCN1C(=O)/C(=C/C(=O)c3cccc(F)c3)NCC21` (stereo not given), the fold change (FC) is 1.43.
As for `COc1ccc2c(c1)C1CN/C(=C\C(=O)c3ccccc3)C(=O)N1CC2` (stereo not given), the fold change (FC) stood at 1.93.
Regarding `O=C(/C=C1\NCC2c3ccccc3CCN2C1=O)c1ccccc1[N+](=O)[O-]` (stereo not given), the fold change (FC) came out at 1.29.
Consider `COc1ccc(C(=O)/C=C2\NCC3c4ccccc4CCN3C2=O)cc1OC` (stereo not given), for which the fold change (FC) is 1.77.
Still for that read-out and setting: for `COc1ccc2c(c1)C1CN/C(=C\C(=O)c3cccc([N+](=O)[O-])c3)C(=O)N1CC2` (stereo not given) the value was 1.75; for `O=C(/C=C1\NCC2c3ccccc3CCN2C1=O)c1cccc(Cl)c1` (stereo not given), 3.77.
On the same count and under the same terms, under `COc1ccc2c(c1)C1CN/C(=C\C(=O)c3ccc(F)cc3)C(=O)N1CC2` (stereo not given) stands 1.35; under `COc1cc2c(cc1OC)C1CN/C(=C\C(=O)c3ccccc3F)C(=O)N1CC2` (stereo not given), 0.8; under `COc1cc2c(cc1OC)C1CN/C(=C\C(=O)c3cccc([N+](=O)[O-])c3)C(=O)N1CC2` (stereo not given), 1.08.
The same measure, in the same setting: under `COc1ccc2c(c1)CCN1C(=O)/C(=C/C(=O)c3ccccc3F)NCC21` (stereo not given) stands 1.45; under `COc1cccc(C(=O)/C=C2\NCC3c4ccccc4CCN3C2=O)c1` (stereo not given), 3.69; under `COc1cc2c(cc1OC)C1CN/C(=C\C(=O)c3cccc(F)c3)C(=O)N1CC2` (stereo not given), 0.93.

For a further assay the target is unchanged. Nature of the assay: Induction of Nrf2-mediated ARE activity in human HepG2-ARE-C8 cells at 5 uM after 12 hrs by luciferase reporter gene assay relative to control. Type of assay: cell-based.
Take `O=C(/C=C1\NCC2c3ccccc3CCN2C1=O)c1ccccc1Cl` (stereo not given): the fold change (FC) is 5.46.
Consider `COc1cccc(C(=O)/C=C2\NCC3c4cc(OC)c(OC)cc4CCN3C2=O)c1` (stereo not given), for which the fold change (FC) amounted to 1.11.
Still for that read-out and setting: under `COc1cccc2c1CCN1C(=O)/C(=C/C(=O)c3cccc(F)c3)NCC21` (stereo not given) stands 4.85; under `COc1ccc2c(c1)C1CN/C(=C\C(=O)c3ccccc3)C(=O)N1CC2` (stereo not given), 10.4; under `O=C(/C=C1\NCC2c3ccccc3CCN2C1=O)c1ccccc1[N+](=O)[O-]` (stereo not given), 2.41.
The same measure, in the same setting: for `COc1ccc(C(=O)/C=C2\NCC3c4ccccc4CCN3C2=O)cc1OC` (stereo not given) the value was 2.11; for `COc1ccc2c(c1)C1CN/C(=C\C(=O)c3cccc([N+](=O)[O-])c3)C(=O)N1CC2` (stereo not given), 5.76.
Still for that read-out and setting: under `O=C(/C=C1\NCC2c3ccccc3CCN2C1=O)c1cccc(Cl)c1` (stereo not given) stands 14.
`COc1ccc2c(c1)C1CN/C(=C\C(=O)c3ccc(F)cc3)C(=O)N1CC2` (stereo not given): the fold change (FC) turned out to be 1.82.
The same measure, in the same setting: for `COc1cc2c(cc1OC)C1CN/C(=C\C(=O)c3ccccc3F)C(=O)N1CC2` (stereo not given) the value was 0.97; for `COc1cc2c(cc1OC)C1CN/C(=C\C(=O)c3cccc([N+](=O)[O-])c3)C(=O)N1CC2` (stereo not given), 1.44; for `COc1ccc2c(c1)CCN1C(=O)/C(=C/C(=O)c3ccccc3F)NCC21` (stereo not given), 5.18.
Take `COc1cccc(C(=O)/C=C2\NCC3c4ccccc4CCN3C2=O)c1` (stereo not given): the fold change (FC) was 8.65.
`COc1cc2c(cc1OC)C1CN/C(=C\C(=O)c3cccc(F)c3)C(=O)N1CC2` (stereo not given): the fold change (FC) amounted to 1.68.

Another assay shares this target. The assay can be described thus: Induction of Nrf2-mediated ARE activity in human HepG2-ARE-C8 cells at 10 uM after 12 hrs by luciferase reporter gene assay relative to control. Type of assay: cell-based.
As to `O=C(/C=C1\NCC2c3ccccc3CCN2C1=O)c1ccccc1Cl` (stereo not given), the fold change (FC) was found to be 6.04.
On the same count and under the same terms, under `COc1cccc(C(=O)/C=C2\NCC3c4cc(OC)c(OC)cc4CCN3C2=O)c1` (stereo not given) stands 1.06; under `COc1cccc2c1CCN1C(=O)/C(=C/C(=O)c3cccc(F)c3)NCC21` (stereo not given), 3.7; under `COc1ccc2c(c1)C1CN/C(=C\C(=O)c3ccccc3)C(=O)N1CC2` (stereo not given), 13.
The same measure, in the same setting: for `O=C(/C=C1\NCC2c3ccccc3CCN2C1=O)c1ccccc1[N+](=O)[O-]` (stereo not given) the value was 2.8.
Still for that read-out and setting: under `COc1ccc(C(=O)/C=C2\NCC3c4ccccc4CCN3C2=O)cc1OC` (stereo not given) stands 2.15.
As to `COc1ccc2c(c1)C1CN/C(=C\C(=O)c3cccc([N+](=O)[O-])c3)C(=O)N1CC2` (stereo not given), the fold change (FC) was found to be 6.5.
The same measure, in the same setting: for `O=C(/C=C1\NCC2c3ccccc3CCN2C1=O)c1cccc(Cl)c1` (stereo not given) the value was 16.5; for `COc1ccc2c(c1)C1CN/C(=C\C(=O)c3ccc(F)cc3)C(=O)N1CC2` (stereo not given), 2.48.
Turning to `COc1cc2c(cc1OC)C1CN/C(=C\C(=O)c3ccccc3F)C(=O)N1CC2` (stereo not given), the fold change (FC) is 1.1.
On to `COc1cc2c(cc1OC)C1CN/C(=C\C(=O)c3cccc([N+](=O)[O-])c3)C(=O)N1CC2` (stereo not given), for which the fold change (FC) turned out to be 2.51.
For the compound `COc1ccc2c(c1)CCN1C(=O)/C(=C/C(=O)c3ccccc3F)NCC21` (stereo not given), the fold change (FC) is 7.7.
Still for that read-out and setting: for `COc1cccc(C(=O)/C=C2\NCC3c4ccccc4CCN3C2=O)c1` (stereo not given) the value was 10; for `COc1cc2c(cc1OC)C1CN/C(=C\C(=O)c3cccc(F)c3)C(=O)N1CC2` (stereo not given), 1.09.

The target is the same in the next assay. The assay can be described thus: Induction of Nrf2-mediated ARE activity in human HepG2-ARE-C8 cells at 1 uM after 12 hrs by luciferase reporter gene assay relative to control. Type of assay: cell-based.
Consider `O=C(/C=C1\NCC2c3ccccc3CCN2C1=O)c1ccccc1Cl` (stereo not given), for which the fold change (FC) stood at 2.77.
The same measure, in the same setting: for `COc1cccc(C(=O)/C=C2\NCC3c4cc(OC)c(OC)cc4CCN3C2=O)c1` (stereo not given) the value was 0.95; for `COc1cccc2c1CCN1C(=O)/C(=C/C(=O)c3cccc(F)c3)NCC21` (stereo not given), 4.02.
Turning to `COc1ccc2c(c1)C1CN/C(=C\C(=O)c3ccccc3)C(=O)N1CC2` (stereo not given), the fold change (FC) was 3.5.
On the same count and under the same terms, under `O=C(/C=C1\NCC2c3ccccc3CCN2C1=O)c1ccccc1[N+](=O)[O-]` (stereo not given) stands 1.3; under `COc1ccc(C(=O)/C=C2\NCC3c4ccccc4CCN3C2=O)cc1OC` (stereo not given), 1.93; under `COc1ccc2c(c1)C1CN/C(=C\C(=O)c3cccc([N+](=O)[O-])c3)C(=O)N1CC2` (stereo not given), 3.08.
In the case of `O=C(/C=C1\NCC2c3ccccc3CCN2C1=O)c1cccc(Cl)c1` (stereo not given), the fold change (FC) came to 10.7.
Take `COc1ccc2c(c1)C1CN/C(=C\C(=O)c3ccc(F)cc3)C(=O)N1CC2` (stereo not given): the fold change (FC) was determined as 1.74.
Consider `COc1cc2c(cc1OC)C1CN/C(=C\C(=O)c3ccccc3F)C(=O)N1CC2` (stereo not given), for which the fold change (FC) is 0.95.
On the same count and under the same terms, for `COc1cc2c(cc1OC)C1CN/C(=C\C(=O)c3cccc([N+](=O)[O-])c3)C(=O)N1CC2` (stereo not given) the value was 1.03; for `COc1ccc2c(c1)CCN1C(=O)/C(=C/C(=O)c3ccccc3F)NCC21` (stereo not given), 3.73.
For the compound `COc1cccc(C(=O)/C=C2\NCC3c4ccccc4CCN3C2=O)c1` (stereo not given), the fold change (FC) amounted to 5.68.
Still for that read-out and setting: for `COc1cc2c(cc1OC)C1CN/C(=C\C(=O)c3cccc(F)c3)C(=O)N1CC2` (stereo not given) the value was 1.05.

The values are drawn from ChEMBL document CHEMBL2429758, “3-aroylmethylene-2,3,6,7-tetrahydro-1H-pyrazino[2,1-a]isoquinolin-4(11bH)-ones as potent Nrf2/ARE inducers in human cancer cells and AOM-DSS treated mice” (J Med Chem, 2013).
